From patent publication US20260055114A1, “IMIDAZO[1,2-B]PYRIDAZINE INHIBITORS OF CYCLIN-DEPENDENT KINASES” (H. LEE MOFFITT CANCER CENTER AND RESEARCH INSTITUTE, INC., priority 2022, published 2026)

How the values were obtained:
CCNK = CCNK degradation (DC50, Dmax); format: cell-based; conditions: for Dmax (%): CCNK degradation
CDK12 = CDK12 (Homo sapiens, UniProt Q9NYV4); assay: Inhibition of cyclin-dependent kinase 12 (% enzyme activity at 1 uM and IC50); format: biochemical; conditions: for remaining activity at 1 µM: 1 uM compound
MDA-MB-231 cell line = assay: Antiproliferative activity, MDA-MB-231 cell line (GI50); format: cell-based; conditions: Homo sapiens

Chain of CDK12 (Q9NYV4 whole entry): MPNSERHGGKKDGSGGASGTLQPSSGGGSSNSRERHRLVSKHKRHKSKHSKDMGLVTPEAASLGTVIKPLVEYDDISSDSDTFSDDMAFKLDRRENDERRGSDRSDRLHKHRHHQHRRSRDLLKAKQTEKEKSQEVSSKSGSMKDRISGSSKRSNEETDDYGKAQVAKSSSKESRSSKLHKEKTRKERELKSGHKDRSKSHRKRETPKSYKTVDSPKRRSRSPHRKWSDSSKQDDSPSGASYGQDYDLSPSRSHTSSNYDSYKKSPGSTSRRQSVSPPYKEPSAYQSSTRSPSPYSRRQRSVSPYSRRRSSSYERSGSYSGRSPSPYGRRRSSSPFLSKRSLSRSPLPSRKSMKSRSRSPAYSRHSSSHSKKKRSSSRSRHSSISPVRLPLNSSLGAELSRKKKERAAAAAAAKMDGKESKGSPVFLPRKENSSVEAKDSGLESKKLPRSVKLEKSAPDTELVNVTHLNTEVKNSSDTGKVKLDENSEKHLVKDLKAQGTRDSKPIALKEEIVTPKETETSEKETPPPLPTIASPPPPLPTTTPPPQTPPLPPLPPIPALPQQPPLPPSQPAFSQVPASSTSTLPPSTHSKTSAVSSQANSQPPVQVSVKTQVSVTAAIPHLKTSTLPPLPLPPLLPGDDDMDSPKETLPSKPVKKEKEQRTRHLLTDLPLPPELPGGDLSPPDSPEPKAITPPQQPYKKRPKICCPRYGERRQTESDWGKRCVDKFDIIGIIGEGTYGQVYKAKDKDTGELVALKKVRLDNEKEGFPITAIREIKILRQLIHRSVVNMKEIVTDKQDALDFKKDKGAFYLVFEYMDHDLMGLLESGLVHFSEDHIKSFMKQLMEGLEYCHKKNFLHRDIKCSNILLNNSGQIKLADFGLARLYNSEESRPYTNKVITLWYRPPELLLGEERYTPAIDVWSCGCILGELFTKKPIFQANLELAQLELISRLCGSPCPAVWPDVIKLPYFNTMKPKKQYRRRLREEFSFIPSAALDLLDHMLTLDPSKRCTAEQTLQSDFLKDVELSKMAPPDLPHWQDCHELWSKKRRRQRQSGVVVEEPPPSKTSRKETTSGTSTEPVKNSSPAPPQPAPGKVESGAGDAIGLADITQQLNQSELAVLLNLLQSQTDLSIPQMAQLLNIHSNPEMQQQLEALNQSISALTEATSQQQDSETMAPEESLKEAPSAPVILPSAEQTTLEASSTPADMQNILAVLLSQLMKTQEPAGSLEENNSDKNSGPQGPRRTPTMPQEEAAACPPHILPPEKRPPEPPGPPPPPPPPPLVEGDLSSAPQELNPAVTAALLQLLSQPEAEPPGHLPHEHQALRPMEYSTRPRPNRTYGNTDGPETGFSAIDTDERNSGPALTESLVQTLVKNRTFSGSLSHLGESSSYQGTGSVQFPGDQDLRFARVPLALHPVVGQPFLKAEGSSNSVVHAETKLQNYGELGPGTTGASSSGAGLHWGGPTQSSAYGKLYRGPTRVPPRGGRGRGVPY
Chain of CDK12 (O75909 whole entry partner): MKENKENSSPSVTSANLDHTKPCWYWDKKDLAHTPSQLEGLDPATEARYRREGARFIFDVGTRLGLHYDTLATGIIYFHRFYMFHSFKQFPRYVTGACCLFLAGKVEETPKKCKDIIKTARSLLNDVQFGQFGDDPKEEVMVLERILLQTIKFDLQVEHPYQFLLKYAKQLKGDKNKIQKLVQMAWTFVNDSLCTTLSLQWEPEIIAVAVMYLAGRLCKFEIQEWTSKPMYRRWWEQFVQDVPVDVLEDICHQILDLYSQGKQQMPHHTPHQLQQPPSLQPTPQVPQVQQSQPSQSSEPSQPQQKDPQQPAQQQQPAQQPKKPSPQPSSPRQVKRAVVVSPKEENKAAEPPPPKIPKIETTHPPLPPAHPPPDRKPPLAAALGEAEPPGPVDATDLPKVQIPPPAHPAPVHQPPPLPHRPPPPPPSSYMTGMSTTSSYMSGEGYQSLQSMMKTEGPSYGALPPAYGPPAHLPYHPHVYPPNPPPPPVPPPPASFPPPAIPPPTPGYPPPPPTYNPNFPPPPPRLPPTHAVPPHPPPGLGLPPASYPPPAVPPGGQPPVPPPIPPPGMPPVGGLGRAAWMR

DC50 (CCNK) [nM] | IC50 (CDK12) [nM] | GI50 (MDA-MB-231 cell line) [nM] | remaining activity at 1 µM (CDK12) [%] | SMILES | Dmax (%) (CCNK)
10000 | 722 | 10000 | 34 | Cc1ccnc2[nH]c(CNc3cc(N4CCOCC4)nn4c(-c5cnn(C(C)C)c5)cnc34)nc12 [Cmpd 21, 3-(1-isopropyl-1H-pyrazol-4-yl)-N-((7-methyl-3H-imidazo[4,5-b]pyridin-2-yl)methyl)-6-morpholinoimidazo[1,2-b]pyridazin-8-amine] | –
10000 | 1110 | 5180 | 53 | CC(C)n1cc(-c2cnc3c(NCc4nc5c(F)c(F)ccc5[nH]4)cc(N4CCN(C)CC4)nn23)cn1 [Cmpd 23, N-((4,5-difluoro-1H-benzo[d]imidazol-2-yl)methyl)-3-(1-isopropyl-1H-pyrazol-4-yl)-6-(4-methylpiperazin-1-yl) imidazo[1,2-b]pyridazin-8-amine] | –
2100 | 1270 | 10000 | 60 | CC(C)n1cc(-c2cnc3c(NCc4nc5c(F)c(F)ccc5[nH]4)cc(N4CCOCC4)nn23)cn1 [Cmpd 24, N-((4,5-difluoro-1H-benzo[d]imidazol-2-yl)methyl)-3-(1-isopropyl-1H-pyrazol-4-yl)-6-morpholinoimidazo[1,2-b]pyridazin-8-amine] | 65
10000 | 1110 | 6070 | 53 | CC(C)n1cc(-c2cnc3c(NCc4nc5c(F)cccc5[nH]4)cc(N4CCN(C)CC4)nn23)cn1 [Cmpd 26, N-((4-fluoro-1H-benzo[d]imidazol-2-yl)methyl)-3-(1-isopropyl-1H-pyrazol-4-yl)-6-(4-methylpiperazin-1-yl) imidazo[1,2-b]pyridazin-8-amine] | –
370 | – | 465 | – | CN1CCN(c2cc(NCc3nc4cc(Cl)c(Cl)cc4[nH]3)c3ncc(-c4cnn(C(F)F)c4)n3n2)CC1(C)C [Cmpd 49, N-((5,6-dichloro-1H-benzo[d]imidazol-2-yl)methyl)-3-(1-(difluoromethyl)-1H-pyrazol-4-yl)-6-(3,3,4-trimethylpiperazin-1-yl) imidazo[1,2-b]pyridazin-8-amine] | 95
– | 1000 | 5000 | – | CN(C)c1cc(NCc2nc3cccc(Cl)c3[nH]2)c2ncc(-c3ccsc3)n2n1 [Cmpd 73, N8-((7-chloro-1H-benzo[d]imidazol-2-yl)methyl)-N6,N6-dimethyl-3-(thiophen-3-yl) imidazo[1,2-b]pyridazine-6,8-diamine] | –

Further lines, the compound ahead of its results:

SMILES | DC50 (CCNK) [nM] | IC50 (CDK12) [nM] | GI50 (MDA-MB-231 cell line) [nM] | remaining activity at 1 µM (CDK12) [%] | Dmax (%) (CCNK)
CN1CCN(c2cc(NCc3nc4c(F)c(F)ccc4[nH]3)c3ncc(-c4cnn(C)c4)n3n2)CC1 [Cmpd 5, N-((4,5-difluoro-1H-benzo[d]imidazol-2-yl)methyl)-3-(1-methyl-1H-pyrazol-4-yl)-6-(4-methylpiperazin-1-yl) imidazo[1,2-b]pyridazin-8-amine] | 1300 | 3000 | 4280 | – | 65
Cn1cc(-c2cnc3c(NCc4nc5c(F)c(F)ccc5[nH]4)cc(N4CCOCC4)nn23)cn1 [Cmpd 6, N-((4,5-difluoro-1H-benzo[d]imidazol-2-yl)methyl)-3-(1-methyl-1H-pyrazol-4-yl)-6-morpholinoimidazo[1,2-b]pyridazin-8-amine] | 460 | 3000 | 3840 | – | 75
CN1CCN(c2cc(NCc3nc4cc(Cl)c(Cl)cc4[nH]3)c3ncc(-c4cnn(C)c4)n3n2)CC1 [Cmpd 8, N-((5,6-dichloro-1H-benzo[d]imidazol-2-yl)methyl)-3-(1-methyl-1H-pyrazol-4-yl)-6-(4-methylpiperazin-1-yl) imidazo[1,2-b]pyridazin-8-amine] | 1300 | 10000 | 424 | – | 100
Cn1cc(-c2cnc3c(NCc4nc5cc(Cl)c(Cl)cc5[nH]4)cc(N4CCOCC4)nn23)cn1 [Cmpd 9, N-((5,6-dichloro-1H-benzo[d]imidazol-2-yl)methyl)-3-(1-methyl-1H-pyrazol-4-yl)-6-morpholinoimidazo[1,2-b]pyridazin-8-amine] | 680 | 9560 | 564 | – | 95
Cc1ccnc2[nH]c(CNc3cc(N4CCN(C)CC4)nn4c(-c5cnn(C)c5)cnc34)nc12 [Cmpd 11, 3-(1-methyl-1H-pyrazol-4-yl)-N-((7-methyl-3H-imidazo[4,5-b]pyridin-2-yl)methyl)-6-(4-methylpiperazin-1-yl) imidazo[1,2-b]pyridazin-8-amine] | 5600 | 1000 | 7930 | – | 60
Cc1ccnc2[nH]c(CNc3cc(N4CCOCC4)nn4c(-c5cnn(C)c5)cnc34)nc12 [Cmpd 12, 3-(1-methyl-1H-pyrazol-4-yl)-N-((7-methyl-3H-imidazo[4,5-b]pyridin-2-yl)methyl)-6-morpholinoimidazo[1,2-b]pyridazin-8-amine] | 2100 | 1000 | 5690 | – | 65
CC(C)n1cc(-c2cnc3c(NCc4nc5cc(Cl)c(Cl)cc5[nH]4)cc(N4CCN(C)CC4)nn23)cn1 [Cmpd 14, N-((5,6-dichloro-1H-benzo[d]imidazol-2-yl)methyl)-3-(1-isopropyl-1H-pyrazol-4-yl)-6-(4-methylpiperazin-1-yl) imidazo[1,2-b]pyridazin-8-amine] | 10000 | 5000 | 1770 | 84 | –
CC(C)n1cc(-c2cnc3c(NCc4nc5cc(Cl)c(Cl)cc5[nH]4)cc(N4CCOCC4)nn23)cn1 [Cmpd 15, N-((5,6-dichloro-1H-benzo[d]imidazol-2-yl)methyl)-3-(1-isopropyl-1H-pyrazol-4-yl)-6-morpholinoimidazo[1,2-b]pyridazin-8-amine] | 2100 | 3000 | 4110 | 68 | 65
CC(C)n1cc(-c2cnc3c(NCc4nc5cccc(Cl)c5[nH]4)cc(N4CCN(C)CC4)nn23)cn1 [Cmpd 17, N-((7-chloro-1H-benzo[d]imidazol-2-yl)methyl)-3-(1-isopropyl-1H-pyrazol-4-yl)-6-(4-methylpiperazin-1-yl) imidazo[1,2-b]pyridazin-8-amine] | 10000 | 919 | 5600 | 45 | –
CC(C)n1cc(-c2cnc3c(NCc4nc5cccc(Cl)c5[nH]4)cc(N4CCOCC4)nn23)cn1 [Cmpd 18, N-((7-chloro-1H-benzo[d]imidazol-2-yl)methyl)-3-(1-isopropyl-1H-pyrazol-4-yl)-6-morpholinoimidazo[1,2-b]pyridazin-8-amine] | 1800 | 997 | 9920 | 48 | 70
Cc1ccnc2[nH]c(CNc3cc(N4CCN(C)CC4)nn4c(-c5cnn(C(C)C)c5)cnc34)nc12 [Cmpd 20, 3-(1-isopropyl-1H-pyrazol-4-yl)-N-((7-methyl-3H-imidazo[4,5-b]pyridin-2-yl)methyl)-6-(4-methylpiperazin-1-yl) imidazo[1,2-b]pyridazin-8-amine] | 10000 | 531 | 6670 | 30 | –
